Tests used:
Assay in all cases: relative viability (nuclei count vs DMSO), 5 days (fraction); higher = more cells survive
Tozasertib + Alpelisib = compound: Cc1cc(Nc2cc(N3CCN(C)CC3)nc(Sc3ccc(NC(=O)C4CC4)cc3)n2)n[nH]1 [Tozasertib] + Cc1nc(NC(=O)N2CCC[C@H]2C(N)=O)sc1-c1ccnc(C(C)(C)C(F)(F)F)c1 [Alpelisib] (partner 2 µM)
Summary of the method: (§1)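 Relative viability is defined as nuclei in treated wells over nuclei in vehicle wells. Duplicate plates were run and medians reported. Lung cancer cell lines in 1536-well plates were dosed by pin tool one day after seeding, with one drug or with a fixed anchor-drug dose plus five library-drug doses (not always all listed) in √10 steps, and nuclei were counted after 5 days.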

Tozasertib + Lapatinib = compound: Cc1cc(Nc2cc(N3CCN(C)CC3)nc(Sc3ccc(NC(=O)C4CC4)cc3)n2)n[nH]1 [Tozasertib] + CS(=O)(=O)CCNCc1ccc(-c2ccc3ncnc(Nc4ccc(OCc5cccc(F)c5)c(Cl)c4)c3c2)o1 [Lapatinib] (partner 2 µM)
Summary of the method: as §1

Tozasertib + Dasatinib = compound: Cc1cc(Nc2cc(N3CCN(C)CC3)nc(Sc3ccc(NC(=O)C4CC4)cc3)n2)n[nH]1 [Tozasertib] + Cc1nc(Nc2ncc(C(=O)Nc3c(C)cccc3Cl)s2)cc(N2CCN(CCO)CC2)n1 [Dasatinib] (partner 0.075 µM)
Summary of the method: as §1

Tozasertib + Vorinostat = compound: Cc1cc(Nc2cc(N3CCN(C)CC3)nc(Sc3ccc(NC(=O)C4CC4)cc3)n2)n[nH]1 [Tozasertib] + O=C(CCCCCCC(=O)Nc1ccccc1)NO [Vorinostat] (partner 1 µM)
Summary of the method: as §1

Tozasertib + Decitabine = compound: Cc1cc(Nc2cc(N3CCN(C)CC3)nc(Sc3ccc(NC(=O)C4CC4)cc3)n2)n[nH]1 [Tozasertib] + Nc1ncn([C@H]2C[C@H](O)[C@@H](CO)O2)c(=O)n1 [Decitabine] (partner 2 µM)
Summary of the method: as §1

Cell Line | relative viability (Tozasertib + Alpelisib; first compound 0.004 µM) | relative viability (Tozasertib + Alpelisib; first compound 0.01265 µM) | relative viability (Tozasertib + Alpelisib; first compound 0.04 µM) | relative viability (Tozasertib + Alpelisib; first compound 0.1265 µM) | relative viability (Tozasertib + Lapatinib; first compound 0.004 µM) | relative viability (Tozasertib + Lapatinib; first compound 0.01265 µM) | relative viability (Tozasertib + Lapatinib; first compound 0.04 µM) | relative viability (Tozasertib + Lapatinib; first compound 0.1265 µM) | relative viability (Tozasertib + Dasatinib; first compound 0.004 µM) | relative viability (Tozasertib + Dasatinib; first compound 0.01265 µM) | relative viability (Tozasertib + Dasatinib; first compound 0.04 µM) | relative viability (Tozasertib + Dasatinib; first compound 0.1265 µM) | relative viability (Tozasertib + Vorinostat; first compound 0.004 µM) | relative viability (Tozasertib + Vorinostat; first compound 0.01265 µM) | relative viability (Tozasertib + Vorinostat; first compound 0.04 µM) | relative viability (Tozasertib + Vorinostat; first compound 0.1265 µM) | relative viability (Tozasertib + Decitabine; first compound 0.004 µM) | relative viability (Tozasertib + Decitabine; first compound 0.01265 µM) | relative viability (Tozasertib + Decitabine; first compound 0.04 µM) | relative viability (Tozasertib + Decitabine; first compound 0.1265 µM)
HCC-827 | 1.03 | 0.931 | 1.06 | 0.954 | 0.222 | 0.18 | 0.215 | 0.192 | 0.299 | 0.282 | 0.352 | 0.345 | 0.87 | 0.835 | 0.89 | 0.584 | 0.207 | 0.283 | 0.305 | 0.264
HOP-62 | 1.05 | 0.887 | 0.937 | 0.937 | 1.06 | 0.999 | 0.856 | 0.943 | 0.676 | 0.615 | 0.672 | 0.668 | 0.621 | 0.483 | 0.628 | 0.462 | 0.213 | 0.234 | 0.194 | 0.196
LC-2-ad | 0.881 | 0.82 | 1.02 | 0.354 | 1.01 | 0.884 | 0.97 | 0.509 | 0.624 | 0.565 | 0.482 | 0.236 | 0.762 | 0.631 | 0.613 | 0.272 | 0.87 | 0.792 | 0.798 | –
LCLC-97TM1 | – | 0.247 | 0.32 | 0.207 | – | 0.884 | 1.04 | 0.592 | 0.809 | 0.695 | 0.948 | 0.783 | 0.69 | 0.639 | 0.644 | 0.153 | 0.222 | 0.232 | 0.235 | 0.185
LCLC-103H | 0.817 | 0.895 | 0.952 | 0.994 | – | – | – | – | 0.539 | 0.452 | 0.456 | 0.478 | 0.842 | 0.863 | 0.743 | 0.544 | 0.689 | 0.621 | 0.775 | 0.683
LK-2 | 1.33 | – | 1.12 | 0.306 | 1.01 | 0.869 | 1.01 | 0.219 | 0.262 | 0.39 | 0.285 | 0.23 | 0.287 | 0.321 | 0.28 | 0.197 | 0.428 | 0.291 | 0.363 | 0.141
LOU-NH91 | – | 0.736 | 0.731 | 0.694 | 0.789 | 0.742 | 0.803 | 0.638 | – | 0.519 | 0.573 | 0.499 | 0.761 | 0.889 | 0.983 | 0.707 | 0.681 | 0.791 | 0.812 | 0.762
LU99A | 0.648 | 0.507 | 0.463 | 0.267 | 1.07 | 0.749 | 0.742 | 0.467 | 0.751 | 0.513 | 0.547 | 0.373 | 0.544 | 0.423 | 0.428 | 0.339 | 0.968 | 0.859 | 0.785 | 0.504
LXF-289 | – | 1.05 | 0.955 | 0.615 | 0.956 | 0.846 | 0.823 | 0.722 | 0.226 | 0.198 | 0.232 | 0.0943 | 0.731 | 0.702 | 0.533 | 0.252 | 0.378 | 0.405 | 0.337 | 0.262
NCI-H23 | 0.638 | 0.578 | 0.781 | 0.361 | 1.1 | 0.96 | 0.989 | 0.269 | 0.747 | 0.91 | 0.832 | 0.909 | – | 0.693 | 0.599 | 0.168 | 0.332 | 0.298 | 0.276 | 0.242
NCI-H322M | 0.732 | 0.749 | 0.904 | 0.848 | 0.594 | 0.538 | 0.614 | 0.519 | 0.263 | 0.263 | 0.257 | 0.224 | 0.91 | 0.828 | 0.984 | 0.588 | 0.656 | 0.661 | 0.675 | 0.618
NCI-H441 | 0.69 | 0.69 | 0.758 | 0.541 | – | – | – | – | 0.655 | 0.643 | – | 0.474 | 0.852 | 0.823 | 0.845 | 0.766 | 0.226 | 0.222 | 0.25 | 0.261
NCI-H522 | – | – | – | – | – | – | – | – | 0.836 | 1.12 | 1.01 | 0.725 | 0.917 | 1.14 | 0.759 | 0.782 | 0.655 | 0.746 | 0.647 | 0.622
NCI-H1563 | 0.944 | 0.794 | 0.94 | 0.874 | 0.922 | 0.967 | 0.875 | – | 0.567 | 0.481 | 0.541 | 0.453 | – | – | – | – | – | – | – | –
NCI-H1650 | – | – | – | – | 0.914 | 0.712 | 0.879 | 0.168 | 0.311 | 0.377 | – | 0.167 | 0.517 | 0.462 | 0.68 | 0.391 | 0.351 | 0.364 | 0.404 | 0.307
NCI-H1703 | 0.364 | 0.357 | 0.445 | 0.209 | 1.4 | 0.918 | 1.11 | 0.301 | – | – | – | – | – | – | – | – | – | – | – | –
NCI-H1792 | 0.613 | 0.596 | 0.817 | 0.618 | 0.913 | 0.742 | 0.943 | 0.737 | 0.7 | 0.594 | 0.888 | 0.694 | – | – | – | – | 0.601 | 0.534 | 0.482 | 0.505
NCI-H2228 | 0.806 | – | 0.556 | 0.434 | 0.958 | – | 0.765 | 0.336 | 0.493 | 0.493 | 0.546 | 0.232 | 0.668 | 0.402 | 0.585 | 0.49 | – | – | – | –
NCI-H2342 | – | – | – | – | – | – | – | – | 0.338 | 0.293 | 0.314 | 0.292 | 0.77 | 0.78 | 0.782 | 0.597 | 0.678 | 0.738 | 0.723 | 0.766

Source: the supplement of paper PMC10307832
